Test results taken from patent US20230303570A1, “KINASE INHIBITORS AND USES THEREOF” (ABM Therapeutics Corporation, priority 2020, published 2023).

Tests used:
SRC = target: T1, SRC (Homo sapiens, UniProt P12931); test: In vitro kinase assay, SRC (Caliper EZ Reader conversion); type: biochemical; conditions: read-out: SRC IC50
T1 construct: purchased Carna Biosciences
Experimental: (§1) The effect of the compounds on the activity of SRC and PAK1 kinase were assessed. SRC and PAK1 kinase enzymes were obtained from Carna Biosciences.
Test compounds were dissolved in 100% DMSO to prepare a 20 mM stock. Compounds were stored in −20° C. and protected from light. […] Saracatinib was used as a positive control for the SRC assay, and FRAX597 was used as a positive control for the PAK1 assay. For the positive controls, a 3-fold serial dilution was made to achieve a total of 10 concentrations. 10 μL 1× Kinase buffer was used as the negative control.
First, 250 nL of the compounds at each dilution were transferred into wells of a 384-well plate. […] Then, 10 μL of enzyme mix was added to the 384-well plate, and the enzymes and compounds were pre-incubated at room temperature for 10 minutes. […] Then, 15 μL of substrate mix was added to a 384-well plate and reacted at room temperature for 30 min and 60 min. The reaction was stopped by adding 30 μL of the stop buffer, and the conversion rate was read using a Caliper EZ Reader.
(§2) Percent inhibition is calculated according to the following equation: […]
(§3) wherein “Conversion %_sample” is the conversion percentage value of the sample; “Conversion %_min” is the average conversion percentage value of the negative control; and “Conversion %_max” is the average conversion percentage value of the positive control.
(§4) The dose-response curve was fitted using GraphPad Prism software (version 5, […]), and the IC50 values for each compounds were calculated by log(inhibitor) vs. response using a variable slope program with the following formula:
(§5) Y=Bottom+(Top-Bottom)/(1+10^((Log IC50−X)*HillSlope))

PAK1 = PAK1 (Homo sapiens, UniProt Q13153); test: In vitro kinase assay, PAK1 (Caliper EZ Reader conversion); type: biochemical; design: purchased Carna Biosciences
PAK1, sequence (Q13153 whole entry): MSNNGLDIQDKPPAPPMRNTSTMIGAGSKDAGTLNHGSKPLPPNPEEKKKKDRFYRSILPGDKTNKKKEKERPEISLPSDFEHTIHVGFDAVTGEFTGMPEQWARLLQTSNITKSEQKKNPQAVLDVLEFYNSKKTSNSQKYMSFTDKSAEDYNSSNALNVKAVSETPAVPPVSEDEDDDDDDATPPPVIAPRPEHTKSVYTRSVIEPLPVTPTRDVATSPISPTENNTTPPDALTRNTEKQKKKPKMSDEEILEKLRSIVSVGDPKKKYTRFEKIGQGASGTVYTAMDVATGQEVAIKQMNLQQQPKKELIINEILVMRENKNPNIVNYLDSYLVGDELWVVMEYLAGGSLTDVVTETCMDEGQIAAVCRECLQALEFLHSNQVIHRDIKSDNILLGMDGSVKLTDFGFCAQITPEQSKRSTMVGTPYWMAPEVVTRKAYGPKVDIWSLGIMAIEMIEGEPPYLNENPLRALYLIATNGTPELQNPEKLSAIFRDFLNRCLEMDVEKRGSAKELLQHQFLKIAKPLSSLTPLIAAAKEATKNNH
Experimental: as §1
Test compounds were dissolved in 100% DMSO to prepare a 20 mM stock. Compounds were stored in −20° C. and protected from light. A 100×solution of the compounds were prepared, from which 4-fold serial dilutions was made to achieve a total of 6 concentrations. Saracatinib was used as a positive control for the SRC assay, and FRAX597 was used as a positive control for the PAK1 assay. For the positive controls, a 3-fold serial dilution was made to achieve a total of 10 concentrations. 10 μL 1× Kinase buffer was used as the negative control.
First, 250 nL of the compounds at each dilution were transferred into wells of a 384-well plate. The PAK1 and SRC kinases were diluted to a 2.5×final concentration with 1×Kinase buffer. Then, 10 μL of enzyme mix was added to the 384-well plate, and the enzymes and compounds were pre-incubated at room temperature for 10 minutes. […] Then, 15 μL of substrate mix was added to a 384-well plate and reacted at room temperature for 30 min and 60 min. The reaction was stopped by adding 30 μL of the stop buffer, and the conversion rate was read using a Caliper EZ Reader.
as §2, §3, §4, §5

T1 sequence (P12931 whole entry): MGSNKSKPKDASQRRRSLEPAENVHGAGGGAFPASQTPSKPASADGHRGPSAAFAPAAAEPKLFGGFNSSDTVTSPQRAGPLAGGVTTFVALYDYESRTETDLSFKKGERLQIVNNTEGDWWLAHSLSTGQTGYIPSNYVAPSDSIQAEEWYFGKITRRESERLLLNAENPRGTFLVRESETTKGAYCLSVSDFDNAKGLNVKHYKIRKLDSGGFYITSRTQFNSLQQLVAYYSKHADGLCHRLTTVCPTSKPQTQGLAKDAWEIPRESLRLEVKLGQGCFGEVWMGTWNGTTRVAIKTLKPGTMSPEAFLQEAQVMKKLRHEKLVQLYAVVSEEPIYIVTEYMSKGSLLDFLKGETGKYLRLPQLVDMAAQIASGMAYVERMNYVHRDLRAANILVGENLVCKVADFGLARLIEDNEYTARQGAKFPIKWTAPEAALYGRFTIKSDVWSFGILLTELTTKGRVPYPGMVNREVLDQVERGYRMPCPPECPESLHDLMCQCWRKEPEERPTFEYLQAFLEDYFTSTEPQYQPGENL

| Compound | IC50 (SRC) | IC50 (PAK1) |
| --- | --- | --- |
| Fc1cc(Nc2ncc3c(n2)N2CCN=C2C(c2ccccc2)=C3)ccc1N1CCNCC1 [Compound 27, N-(3-fluoro-4-(piperazin-1-yl)phenyl)-6-phenyl-8,9-dihydroimidazo[1′,2′:1,6]pyrido[2,3-d]pyrimidin-2-amine] | < 0.1 µM | > 10 µM |
| Fc1cc(N2CCNCC2)ccc1Nc1ncc2c(n1)N1CCN=C1C(c1ccc(Cl)cc1)=C2 [Compound 28, 6-(4-chlorophenyl)-N-(2-fluoro-4-(piperazin-1-yl)phenyl)-8,9-dihydroimidazo[1′,2′:1,6]pyrido[2,3-d]pyrimidin-2-amine] | 0.1 to 10 µM | > 10 µM |
| COc1nc(N2CCNCC2)ccc1Nc1ncc2c(n1)N1CCN=C1C(c1ccccn1)=C2 [Compound 39, N-(2-methoxy-6-(piperazin-1-yl)pyridin-3-yl)-6-(pyridin-2-yl)-8,9-dihydroimidazo[1′,2′:1,6]pyrido[2,3-d]pyrimidin-2-amine] | > 10 µM | > 10 µM |
| COc1nc(N2CCNCC2)ccc1Nc1ncc2c(n1)N1CCN=C1C(c1ccc(Cl)cc1Cl)=C2 [Compound 35, 6-(2,4-dichlorophenyl)-N-(2-methoxy-6-(piperazin-1-yl)pyridin-3-yl)-8,9-dihydroimidazo[1′,2′:1,6]pyrido[2,3-d]pyrimidin-2-amine] | 0.1 to 10 µM | 0.1 to 10 µM |
| Fc1cc(N2CCNCC2)ccc1Nc1ncc2c(n1)N1CCN=C1C(c1ccccc1)=C2 [Compound 29, N-(2-fluoro-4-(piperazin-1-yl)phenyl)-6-phenyl-8,9-dihydroimidazo[1′,2′:1,6]pyrido[2,3-d]pyrimidin-2-amine] | 0.1 to 10 µM | > 10 µM |
| Fc1ccc(Nc2ncc3c(n2)N2CCN=C2C(c2ccccc2Cl)=C3)cc1 [Compound 19, 6-(2-chlorophenyl)-N-(4-fluorophenyl)-8,9-dihydroimidazo[1′,2′:1,6]pyrido[2,3-d]pyrimidin-2-amine] | < 0.1 µM | > 10 µM |
| CCNc1ncc2c(n1)N1CCN=C1C(c1ccc(-n3ccnc(C)c3=O)cc1Cl)=C2 [Compound 24, 1-(3-chloro-4-(2-(ethylamino)-8,9-dihydroimidazo[1′,2′:1,6]pyrido[2,3-d]pyrimidin-6-yl)phenyl)-3-methylpyrazin-2(1H)-one] | > 10 µM | 0.1 to 10 µM |
| Fc1cc(Nc2ncc3c(n2)N2CCN=C2C(c2ccc(Cl)cc2)=C3)ccc1N1CCNCC1 [Compound 26, 6-(4-chlorophenyl)-N-(3-fluoro-4-(piperazin-1-yl)phenyl)-8,9-dihydroimidazo[1′,2′:1,6]pyrido[2,3-d]pyrimidin-2-amine] | < 0.1 µM | 0.1 to 10 µM |
| Clc1ccc(C2=Cc3cnc(NC4CCOCC4)nc3N3CCN=C23)c(Cl)c1 [Compound 5, 6-(2,4-dichlorophenyl)-N-(tetrahydro-2H-pyran-4-yl)-8,9-dihydroimidazo[1′,2′:1,6]pyrido[2,3-d]pyrimidin-2-amine] | > 10 µM | > 10 µM |
| COc1cccc(Nc2ncc3c(n2)N2CCN=C2C(c2ccccc2Cl)=C3)c1 [Compound 17, 6-(2-chlorophenyl)-N-(3-methoxyphenyl)-8,9-dihydroimidazo[1′,2′:1,6]pyrido[2,3-d]pyrimidin-2-amine] | < 0.1 µM | > 10 µM |
| Clc1cnccc1C1=Cc2cnc(Nc3ccncc3)nc2N2CCN=C12 [Compound 46, 6-(3-chloropyridin-4-yl)-N-(pyridin-4-yl)-8,9-dihydroimidazo[1′,2′:1,6]pyrido[2,3-d]pyrimidin-2-amine] | > 10 µM | > 10 µM |
| COc1nc(N2CCNCC2)ccc1Nc1ncc2c(n1)N1CCN=C1C(c1ccc(Cl)cc1)=C2 [Compound 36, 6-(4-chlorophenyl)-N-(2-methoxy-6-(piperazin-1-yl)pyridin-3-yl)-8,9-dihydroimidazo[1′,2′:1,6]pyrido[2,3-d]pyrimidin-2-amine] | 0.1 to 10 µM | > 10 µM |
| COc1nc(N2CCNCC2)ccc1Nc1ncc2c(n1)N1CCN=C1C(C#Cc1cccnc1)=C2 [Compound 40, N-(2-methoxy-6-(piperazin-1-yl)pyridin-3-yl)-6-(pyridin-3-ylethynyl)-8,9-dihydroimidazo[1′,2′:1,6]pyrido[2,3-d]pyrimidin-2-amine] | > 10 µM | > 10 µM |
| Fc1cc(Nc2ncc3c(n2)N2CCN=C2C(c2ccccc2Cl)=C3)ccc1N1CCNCC1 [Compound 11, 6-(2-chlorophenyl)-N-(3-fluoro-4-(piperazin-1-yl)phenyl)-8,9-dihydroimidazo[1′,2′:1,6]pyrido[2,3-d]pyrimidin-2-amine] | < 0.1 µM | 0.1 to 10 µM |
| Clc1ccc(C2=Cc3cnc(Nc4ccncc4)nc3N3CCN=C23)c(Cl)c1 [Compound 47, 6-(2,4-dichlorophenyl)-N-(pyridin-4-yl)-8,9-dihydroimidazo[1′,2′:1,6]pyrido[2,3-d]pyrimidin-2-amine] | 0.1 to 10 µM | > 10 µM |
| Cn1nccc1Nc1ncc2c(n1)N1CCN=C1C(c1ccccc1Cl)=C2 [Compound 14, 6-(2-chlorophenyl)-N-(1-methyl-1H-pyrazol-5-yl)-8,9-dihydroimidazo[1′,2′:1,6]pyrido[2,3-d]pyrimidin-2-amine] | > 10 µM | > 10 µM |
| CNc1ncc2c(n1)N1CCCN=C1C(c1ccc(-n3ccnc(C)c3=O)cc1Cl)=C2 [Compound 73, 1-(3-chloro-4-(2-(methylamino)-9,10-dihydro-8H-pyrido[1,6-a:2,3-d′]dipyrimidin-6-yl)phenyl)-3-methylpyrazin-2(1H)-one] | > 10 µM | > 10 µM |
| COc1nc(N2CCNCC2)ccc1Nc1ncc2c(n1)N1CCN=C1C(c1ccc(-n3ccnc(C)c3=O)cc1)=C2 [Compound 42, 1-(4-(2-((2-methoxy-6-(piperazin-1-yl)pyridin-3-yl)amino)-8,9-dihydroimidazo[1′,2′:1,6]pyrido[2,3-d]pyrimidin-6-yl)phenyl)-3-methylpyrazin-2(1H)-one] | > 10 µM | > 10 µM |
| CNc1ncc2c(n1)N1CCCN=C1C(c1ccc(-n3cccc(C)c3=O)cc1Cl)=C2 [Compound 72, 1-(3-chloro-4-(2-(methylamino)-9,10-dihydro-8H-pyrido[1,6-a:2,3-d′]dipyrimidin-6-yl)phenyl)-3-methylpyridin-2(1H)-one] | > 10 µM | 0.1 to 10 µM |
| Clc1cccc(Cl)c1C1=Cc2cnc(Nc3ccncc3)nc2N2CCN=C12 [Compound 52, 6-(2,6-dichlorophenyl)-N-(pyridin-4-yl)-8,9-dihydroimidazo[1′,2′:1,6]pyrido[2,3-d]pyrimidin-2-amine] | < 0.1 µM | > 10 µM |
| C1=C(c2ccccn2)C2=NCCN2c2nc(Nc3ccncc3)ncc21 [Compound 44, 6-(pyridin-2-yl)-N-(pyridin-4-yl)-8,9-dihydroimidazo[1′,2′:1,6]pyrido[2,3-d]pyrimidin-2-amine] | 0.1 to 10 µM | > 10 µM |
| Clc1cccc(Cl)c1C1=Cc2cnc(NCCC3CCNCC3)nc2N2CCN=C12 [Compound 49, 6-(2,6-dichlorophenyl)-N-(2-(piperidin-4-yl)ethyl)-8,9-dihydroimidazo[1′,2′:1,6]pyrido[2,3-d]pyrimidin-2-amine] | 0.1 to 10 µM | > 10 µM |
| CN(C)CCOc1ccc(Nc2ncc3c(n2)N2CCN=C2C(c2ccccc2Cl)=C3)cc1 [Compound 22, 6-(2-chlorophenyl)-N-(4-(2-(dimethylamino)ethoxy)phenyl)-8,9-dihydroimidazo[1′,2′:1,6]pyrido[2,3-d]pyrimidin-2-amine] | < 0.1 µM | 0.1 to 10 µM |
| Clc1ccccc1C1=Cc2cnc(NC3COC3)nc2N2CCN=C12 [Compound 21, 6-(2-chlorophenyl)-N-(oxetan-3-yl)-8,9-dihydroimidazo[1′,2′:1,6]pyrido[2,3-d]pyrimidin-2-amine] | > 10 µM | > 10 µM |
| Clc1cccc(Cl)c1C1=Cc2cnc(N3CCNCC3)nc2N2CCN=C12 [Compound 50, 6-(2,6-dichlorophenyl)-2-(piperazin-1-yl)-8,9-dihydroimidazo[1′,2′:1,6]pyrido[2,3-d]pyrimidine] | > 10 µM | > 10 µM |
